Experimental data published in US5525328A, “Nanoparticulate diagnostic diatrizoxy ester X-ray contrast agents for blood pool and lymphatic system imaging” (NanoSystems L.L.C., priority 1994, dated 1996).

How the values were obtained:
[1] = Crystal forms / polymorphism on recrystallization; type: physicochemical; settings: e.g., when recrystallized from various solvents
[2] = Particle size after autoclaving at 121° C. for 20 min. (heat stability); type: physicochemical
Protocol: Compound 2 was added to each of 3×1.5 oz brown glass bottles containing approximately 12 ml of zirconium silicate (1.1 mm dia.) beads in an amount sufficient to be 15% (w/v) of the final suspension. Bottle A contained 3% (w/v) Pluronic F-68. Bottle B contained 3% (w/v) Pluronic F108. Bottle C contained 3% (w/v) Tetronic T-908. The resulting suspensions were milled on a roller mill at approximately 150 rpm for a total of 9 days. Estimates of particle size determined at various intervals were as detailed below:
0.1% (w/v) DOSS was added to the F108 and T908 samples for autoclaving as cloud point modifiers.
(§1) Compound 2 was milled with zirconium silicate (1.1 mm dia) beads in the presence of Pluronic F-108 for 3 days. The final particle size was determined to be 235 nm. At this point, sterile PEG 400 was added to the suspension such that at completion, the formulation contained 15% (w/v) WIN 70146, 3% (w/v) Pluronic F-108, and 10% (w/v) PEG 400. This formulation was then autoclaved under standard conditions, i.e., 121° C. for 20 min., resulting in a final particle size of 248 nm.

[3] = system: blood pool; experiment: CT imaging, blood pool opacification and clearance; type: in vivo, white New Zealand rabbits
Protocol: (§2) This sample was examined for imaging efficacy at the Center for Imaging and Pharmaceutical Research (CIPR) at the Massachusetts General Hospital in Charlestown, Mass. The sample was injected into white New Zealand rabbits at a dose of 3 ml/kg as a slow bolus injection. At times of 5, 15, 30, 60 and 120 min. post injection, the opacification of the liver, spleen, and blood pool as measured in the aorta and within the left ventricle was determined by computed tomography (CT) using a Toshiba 900S Imager CT scanner and associated software.
(§3) This formulation was evaluated at CIPR for both blood pool and lymphographic imaging in New Zealand White Rabbits using the above-described protocol (3 ml/kg) for blood pool imaging and 2 injections (0.25 ml) per paw for lymphography. […] Scanning was carried out using a Toshiba 900S Imager CT scanner and image density was calculated from iodinated standards imaged simultaneously with the animals.

[4] = system: spleen; experiment: CT imaging, spleen opacification and clearance; type: in vivo, white New Zealand rabbits
Protocol: This sample was examined for imaging efficacy at the Center for Imaging and Pharmaceutical Research (CIPR) at the Massachusetts General Hospital in Charlestown, Mass. The sample was injected into white New Zealand rabbits at a dose of 3 ml/kg as a slow bolus injection. […], the opacification of the liver, spleen, and blood pool as measured in the aorta and within the left ventricle was determined by computed tomography (CT) using a Toshiba 900S Imager CT scanner and associated software.

[5] = Aqueous solubility relative to the butyrate ester; type: physicochemical
[6] = Particle size after storage for 1 additional week at room temperature (shelf stability); type: physicochemical; settings: with both F108 and T908
Protocol: Compound 2 was added to each of 3×1.5 oz brown glass bottles containing approximately 12 ml of zirconium silicate (1.1 mm dia.) beads in an amount sufficient to be 15% (w/v) of the final suspension. Bottle A contained 3% (w/v) Pluronic F-68. Bottle B contained 3% (w/v) Pluronic F108. Bottle C contained 3% (w/v) Tetronic T-908. The resulting suspensions were milled on a roller mill at approximately 150 rpm for a total of 9 days. Estimates of particle size determined at various intervals were as detailed below: […]

[7] = system: liver; experiment: CT imaging, liver opacification and clearance; type: in vivo, white New Zealand rabbits
Protocol: as §2

[8] = Particle size after milling (light scattering); type: physicochemical
Protocol: 15% Compound 2 was milled with 4% Pluronic F-108 in the presence of zirconium silicate (1.1 mm dia) beads for 3 days under aseptic conditions. No additional salts or surfactants were added. The average particle size of the resulting nanoparticle suspension was 162 nm as determined by light scattering.
as §1

[9] = system: lymph; experiment: Lymphographic imaging by CT; type: in vivo, New Zealand White Rabbits; settings: autoclaved Pluronic F-108/PEG 400 formulation; 2 injections (0.25 ml) per paw
Protocol: as §3

[10] = 15% Compound 2, 4% Pluronic F-108, 3 ml/kg slow bolus
[11] = 24 hours post injection, 3 ml/kg

| SMILES | Crystal forms [1] | Stability during autoclaving ([2]; nanoparticulate formulations, conventional heat sterilization) | Blood pool opacification, duration [3, 10] [min] | Blood pool opacification, grade [3, 10] | Clearance from the blood [3, 11] | Blood pool opacification, duration ([3]; autoclaved Pluronic F-108/PEG 400 formulation, 3 ml/kg) | Spleen opacification, duration [4, 10] [min] | Spleen opacification, grade [4, 10] | Clearance from the spleen [4, 11] | Aqueous solubility, times lower than ethyl 2-(3,5-bis(acetylamino)-2,4,6-triiodobenzoyloxy)butyrate [5] | Final particle size after autoclaving ([2]; 15% (w/v) compound, 3% (w/v) Pluronic F-108, 10% (w/v) PEG 400, 121° C. for 20 min.) [nm] | Stability to heat autoclaving ([2]; with both F108 and T908) | Shelf stability [6] | Liver opacification, duration [7, 10] [min] | Liver opacification, grade [7, 10] | Clearance from the liver [7, 11] | Average particle size ([8]; 15% Compound 2, 4% Pluronic F-108, milled 3 days, light scattering) [nm] | Final particle size after milling ([8]; Pluronic F-108, milled 3 days, before PEG 400 and autoclaving) [nm] | Lymphography level of opacification [9] | Lymphography performance [9] |
| --- | --- | --- | --- | --- | --- | --- | --- | --- | --- | --- | --- | --- | --- | --- | --- | --- | --- | --- | --- | --- |
| CCOC(=O)C(CC)OC(=O)c1c(I)c(NC(C)=O)c(I)c(NC(C)=O)c1I (centres unmarked) [ethyl 2-(3,5-bis(acetylamino)-2,4,6-triiodobenzoyloxy)butyrate, reference compound] | exhibits multiple crystal forms, i.e., polymorphs | do not exhibit good stability during autoclaving |  |  |  |  |  |  |  |  |  |  |  |  |  |  |  |  |  |  |
| CCCCC(OC(=O)c1c(I)c(NC(C)=O)c(I)c(NC(C)=O)c1I)C(=O)OCC (centres unmarked) [Compound 2, ethyl 2-(3,5-diacetamido-2,4,6-triiodobenzoyloxy)hexanoate] |  |  | > 30 | excellent | complete clearance | at least 30 min | 120 | very good | partial clearance | about 40 times | 248 | excellent stability to heat autoclaving | excellent stability to heat autoclaving and shelf stability | 120 | very good | partial clearance | 162 | 235 | highest level of opacification noted to date in this indication | excellent lymphography agent |
